Results as given in paper PMC5940854, “Nitrothiophene carboxamides, a novel narrow spectrum antibacterial series: Mechanism of action and Efficacy” (Scientific Reports, 2018).
Converted amounts (≈) assume the structure as drawn. “And” between values parts separate entries of the source, which are not always exact repeats. Identical values can stand only once. Like-named read-outs stand apart in the source and are kept apart here.

Key:
NfsB = target: T1, NfsB (Escherichia coli, UniProt P38489); assay: Nitroreductase activity assay, NfsB; assay type: biochemical, E. coli; conditions: 20 μM compound, 40 μM NADH, 70 nM NfsB; slope of initial velocity
T1 construct: His-tag; made in house; host or cells: E. coli BL21(DE3), pET28a (pET-nfsB)
Procedure: (§1) Enzyme reducing each of the substrates are measured by monitoring the concomitant oxidation of NADPH by NfsA and NADH by NfsB in a fluorescence based assay. The reduction in fluorescence due to the NADH oxidation (excitation 350 nm, emission 460 nm) and NADPH oxidation (excitation 340 nm, emission 485 nm) is recorded using a TECAN Infinite M200Pro spectrophotometer, in half area solid black microtiter plates. This change in fluorescence directly corelates to the reduction of the nitro-compounds in the reaction. The NfsA assays is performed by initiating the reactions with 40 μM NADPH and 10 nM NfsA in 50 mM Tris-HCl (pH 7.4), 5 mM EDTA against 20 μM substrate (5 μl of compounds/substrate dissolved in 100% DMSO) in a total reaction volume of 100 μl at 25 °C. Similarly, the NfsB assay is also performed by initiating the reactions with 40 μM NADH and 70 nM NfsB in 50 mM Tris-HCl (pH 7.4), 5 mM EDTA against 20 μM substrate in a total reaction volume of 100 μl. […] All reactions are performed in replicates of two or more and the fluorescence measurements are made at 10 second intervals for 5–10 minutes.
(§2) Low solubility of the compounds/substrates under the NfsA and NfsB assay conditions precluded determination of their Km. […] The relative fluorescence units (RFU) obtained due to NADPH (excitation 340 nm, emission 485 nm) or NADH (excitation 350 nm, emission 460 nm) oxidation of the first 90 sec reaction is used to compute the slopes using linear regression analysis on GraphPad Prism. Appropriate blank reactions are included to account for background fluorescence/quenching from each of the components such as DMSO, the compound itself and auto-oxidation of NADPH or NADH. Activity of NfsB with a known substrate such as nitrofurantoin is used as a benchmark to plot the relative activities with all the test compounds.

E. coli ∆tolC JW5503-1 = assay: MIC, E. coli ∆tolC; assay type: cell-based; conditions: Escherichia coli, read-out: MIC tolC
Procedure: (§3) The inoculum used for all the experiments is derived from a single seed lot that is maintained as glycerol stocks at −80 °C and are sub cultured on LB plate for isolated colonies. Single colony of each strain is grown in M9 medium. All test compound stocks and dilutions are prepared in DMSO. Serial two-fold dilutions of compounds are prepared separately, with the concentrations ranging from 2 mg/mL to 0.015 mg/mL. To 150 µl (3–7 × 10^5 CFU/ml) of bacterial culture in 96 well microtitre plates, 3 μL compound from each of the dilutions is added to respective wells to obtain final concentrations ranging from 40 µg/mL to 0.3 µg/mL of the test compounds. Media control, culture control and appropriate reference drug controls are included. […] Growth is monitored by checking absorbance at 600 nm (A600). […] The samples from MIC and above concentrations are plated for MBC (Minimum Bactericidal Concentration). The samples are diluted 1:10 and plated on LB agar plates. […] The killing kinetics is determined by enumerating survivors at various time points following compound exposure. E. coli cells (~10^7 CFU/ml; A600 of 0.1) are treated with various concentrations (40 µg/mL to 0.3 µg/mL) of compounds in a 96-well microtitre plate. At various time intervals (0 to 8 h), 30 μl volumes of treated cultures are serially diluted and plated on LB agar plates. […] Data is expressed as the log10 CFU for each drug treatment.

[1] = tested on: E. coli ∆nfsAB & ∆acrB+nfnB; parameters: unit not given beside the values
Procedure: as §3

[2] = tested on: wild-type E. coli CGSC#7636 (BW25113); assay: MIC, wild-type E. coli; assay type: cell-based; conditions: for MIC: Escherichia coli, read-out: MIC WT
Procedure: as §3

[3] = target: T2, AcrB efflux pump in E. coli BW25113 (Escherichia coli, UniProt P31224); assay: Nile red efflux assay (whole-cell competition); assay type: cell-based; conditions: for Concentration of compound required for complete inhibition of Nile red efflux (Tefflux50 >200 seconds): E. coli BW25113
T2 construct: endogenous in cells; host or cells: E. coli BW25113 (wild type)
Procedure: The Nile red assay is adopted from Bohnert et al.[18]. An overnight culture of E. coli strain BW25113 is harvested and is resuspended in 20 mM potassium phosphate buffer (pH 7.0) containing 1 mM MgCl2 (PPB). The cells are adjusted to an A660 of 1.0 in PPB and aliquoted into glass tubes (2 ml each). Carbonylcyanide-m-chlorophenylhydrazone (CCCP; a protonophore that uncouples the electron transport chain and thus inhibits AcrB mediated efflux) is added to a final concentration of 10 µM (5 mM stock solution in 50% DMSO) and incubated for 15 minutes before adding the potential competitor at desired concentrations. Nile red is then added (stock solution of 5 mM in 10% dimethyl formamide-90% ethanol [vol/vol]) to a final concentration of 5 µM. The cell suspension is incubated at room temperature on a shaker for 3 hours. The cells are harvested and resuspended in 2 ml PPB in the presence of the competitor. The cell suspension is aliquoted in a fluorimeter cuvette, to which, 100 µl of 1 M Glucose is added to activate the electron transport chain. The rate of efflux is measured by Tefflux50, it is the time taken for 50% of Nile red to be effluxed out in presence of the compounds. The fluorescence is measured (Excitation 552 nm, Emission 636 nm) for 200 seconds.

NfsA = target: T3, NfsA (Escherichia coli, UniProt P17117); assay: Nitroreductase activity assay, NfsA; assay type: biochemical, E. coli; conditions: 20 μM compound, 40 μM NADPH, 10 nM NfsA; slope of initial velocity
T3 construct: His-tag; made in house; host or cells: E. coli BL21(DE3), pET28a (pET-nfsA)
Procedure: as §1, §2

ATCC25922 = assay: MIC on E. coli ATCC25922; assay type: cell-based; conditions: strain ATCC25922
Procedure: as §3

[4] = 1µM compound, time for 50% of Nile red to be effluxed, read for 200 seconds

T2 sequence (P0AE06 25-397): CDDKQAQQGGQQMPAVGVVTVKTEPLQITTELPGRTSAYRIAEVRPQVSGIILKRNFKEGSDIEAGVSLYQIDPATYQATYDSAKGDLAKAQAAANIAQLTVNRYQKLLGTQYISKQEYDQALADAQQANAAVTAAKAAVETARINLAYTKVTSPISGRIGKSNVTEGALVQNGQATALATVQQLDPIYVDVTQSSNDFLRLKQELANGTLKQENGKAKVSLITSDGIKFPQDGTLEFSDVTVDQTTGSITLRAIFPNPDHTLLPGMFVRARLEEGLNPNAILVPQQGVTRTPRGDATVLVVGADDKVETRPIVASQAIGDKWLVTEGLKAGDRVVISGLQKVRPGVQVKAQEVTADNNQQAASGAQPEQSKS
T2 sequence (P31224 whole entry): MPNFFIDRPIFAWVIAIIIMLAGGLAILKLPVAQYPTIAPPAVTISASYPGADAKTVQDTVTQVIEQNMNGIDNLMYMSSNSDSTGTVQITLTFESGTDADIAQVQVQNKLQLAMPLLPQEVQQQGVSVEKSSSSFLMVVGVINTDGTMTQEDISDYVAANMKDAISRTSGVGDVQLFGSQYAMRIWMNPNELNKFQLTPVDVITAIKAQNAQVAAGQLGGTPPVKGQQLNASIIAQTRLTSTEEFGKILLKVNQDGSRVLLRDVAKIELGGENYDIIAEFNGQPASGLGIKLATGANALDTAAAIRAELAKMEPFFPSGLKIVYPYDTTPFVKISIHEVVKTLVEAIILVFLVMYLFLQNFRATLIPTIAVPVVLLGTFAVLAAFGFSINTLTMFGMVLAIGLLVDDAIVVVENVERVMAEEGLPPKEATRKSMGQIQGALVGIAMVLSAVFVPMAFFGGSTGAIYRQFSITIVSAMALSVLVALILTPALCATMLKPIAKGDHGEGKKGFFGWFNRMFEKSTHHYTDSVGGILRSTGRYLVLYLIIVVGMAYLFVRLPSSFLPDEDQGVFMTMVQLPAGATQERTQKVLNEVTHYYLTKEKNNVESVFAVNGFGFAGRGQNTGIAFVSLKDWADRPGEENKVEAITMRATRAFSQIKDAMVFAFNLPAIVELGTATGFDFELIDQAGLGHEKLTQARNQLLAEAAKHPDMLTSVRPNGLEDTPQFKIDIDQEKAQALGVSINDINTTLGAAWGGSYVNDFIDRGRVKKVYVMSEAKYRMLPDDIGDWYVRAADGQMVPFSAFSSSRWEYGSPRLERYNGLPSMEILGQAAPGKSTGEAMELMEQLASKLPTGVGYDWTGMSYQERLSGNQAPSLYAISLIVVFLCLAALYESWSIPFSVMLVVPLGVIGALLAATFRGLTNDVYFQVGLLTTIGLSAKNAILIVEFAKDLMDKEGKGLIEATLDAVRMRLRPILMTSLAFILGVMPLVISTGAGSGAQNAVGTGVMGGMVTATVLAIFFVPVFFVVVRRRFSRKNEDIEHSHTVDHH
T2 sequence (P02930 23-493, further chain): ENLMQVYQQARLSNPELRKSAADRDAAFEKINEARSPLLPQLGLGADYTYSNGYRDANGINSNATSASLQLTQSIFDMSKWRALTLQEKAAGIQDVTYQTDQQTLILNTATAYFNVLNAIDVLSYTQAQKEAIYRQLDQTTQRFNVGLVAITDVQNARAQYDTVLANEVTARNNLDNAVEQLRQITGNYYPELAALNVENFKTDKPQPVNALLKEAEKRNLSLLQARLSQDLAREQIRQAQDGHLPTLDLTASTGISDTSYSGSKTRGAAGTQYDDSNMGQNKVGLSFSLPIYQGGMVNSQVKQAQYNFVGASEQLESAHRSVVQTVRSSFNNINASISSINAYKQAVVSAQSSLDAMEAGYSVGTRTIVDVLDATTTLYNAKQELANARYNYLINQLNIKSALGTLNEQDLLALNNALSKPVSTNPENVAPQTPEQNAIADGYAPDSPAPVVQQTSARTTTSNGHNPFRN
T3 sequence (P17117 whole entry): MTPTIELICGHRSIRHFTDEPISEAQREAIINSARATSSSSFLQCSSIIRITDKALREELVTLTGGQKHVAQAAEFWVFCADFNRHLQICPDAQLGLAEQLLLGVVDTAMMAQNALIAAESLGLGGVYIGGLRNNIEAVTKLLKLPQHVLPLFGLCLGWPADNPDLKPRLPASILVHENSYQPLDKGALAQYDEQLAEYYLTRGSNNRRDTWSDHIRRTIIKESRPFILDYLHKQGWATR
T1 sequence (P38489 whole entry): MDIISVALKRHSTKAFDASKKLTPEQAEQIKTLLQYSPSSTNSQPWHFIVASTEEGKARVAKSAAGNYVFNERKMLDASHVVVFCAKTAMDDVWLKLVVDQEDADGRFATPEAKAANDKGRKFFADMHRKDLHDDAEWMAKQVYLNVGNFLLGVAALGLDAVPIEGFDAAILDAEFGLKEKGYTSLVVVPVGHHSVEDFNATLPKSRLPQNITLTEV

Structure (SMILES) | NfsB activity (rate of compound conversion) (NfsB) [µM/min] | MIC (E. coli ∆tolC JW5503-1) [µg/mL] | MIC ∆nfsAB & ∆acrB+nfnB [1] | MIC ([2]; BW25113, E. coli WT BW25113) [µg/mL] | MIC ([2]; BW25113, Table S11) [µg/mL] | Tefflux50 [3, 4] [s] | Tefflux50 ([3]; 9µM compound) [s] | Tefflux50 ([3]; 27µM compound) [s] | Tefflux50 ([3]; 81µM compound) [s] | Tefflux50 ([3]; 100µM compound) [s] | Tefflux50 ([3]; 200µM compound) [s] | Tefflux50 ([3]; 400µM compound) | Concentration of compound required for complete inhibition of Nile red efflux (Tefflux50 >200 seconds) [3] [µM] | NfsA activity (rate of compound conversion) (NfsA) [µM/min] | MIC (ATCC25922) [µg/mL] | MIC WT ([2]; E. coli WT BW25113) [µg/mL]
O=C(Nc1nc(-c2ccc(F)cc2F)cs1)c1ccc([N+](=O)[O-])s1 [compound 12, N-(4-(2,4-difluorophenyl)thiazol-2-yl)-5-nitrothiophene-2-carboxamide] | 6.26 | 0.15 (≈ 0.408 µM) | 0.3 | 0.6 (≈ 1.63 µM) | 0.6 (≈ 1.63 µM) | 66.41 | 67.52 | 67.98 | 68.06 | 68.17 | 68.34 | 68 s and 68.25 s | > 400 | 2.30 | 1 (≈ 2.72 µM) | –
O=C(Nc1nc(-c2ccc(F)cc2)cs1)c1ccc([N+](=O)[O-])s1 [compound 15, N-(4-(4-Fluorophenyl)thiazol-2-yl)-5-nitrothiophene-2-carboxamide] | 7.64 | 0.6 (≈ 1.72 µM) | 0.6 | 1.25 (≈ 3.58 µM) | 1.25 (≈ 3.58 µM) | 61.52 | 72.51 | 81.24 | 124.25 | 200 | 200 | 200 s | 100 | 2.05 | 1.25 (≈ 3.58 µM) | –
COc1cc(-c2csc(NC(=O)c3ccc([N+](=O)[O-])s3)n2)ccc1Cl [compound 20, N-(4-(4-chloro-3-methoxyphenyl)thiazol-2-yl)-5-nitrothiophene-2-carboxamide] | 3.50 | 0.3 (≈ 0.758 µM) | 0.6 | – | 1.25 (≈ 3.16 µM) | 69.24 | 71.14 | 72.65 | 104.21 | 200 | 200 | 200 s | 100 | 0.61 | 2 (≈ 5.05 µM) | –
O=C1CN(/N=C/c2ccc([N+](=O)[O-])o2)C(=O)N1 [nitrofurantoin, reference compound] | 3.50 | – | – | 2.5 (≈ 10.5 µM) | – | – | – | – | – | – | – | – | – | 3.58 | 20 (≈ 84 µM) | –
Cc1sc(NC(=O)c2ccc([N+](=O)[O-])s2)nc1-c1ccccc1 [compound 7, N-(5-Methyl-4-phenylthiazol-2-yl)-5-nitrothiophene-2-carboxamide] | 6.17 | 1.25 (≈ 3.62 µM) | – | > 40 | – | 88.05 | 200 | 200 | 200 | 200 | 200 | 200 s | 9 | 0.64 | – | >40
